Reference: patent publication US20140179664A1, “Heterocyclyl Pyrimidine Analogues As JAK Inhibitors” (Cellzome Limited, priority 2011, published 2014)

Columns and labels:
JAK2 = biological target: T1, JAK2 (Homo sapiens, UniProt O60674); experiment: Kinobeads assay, JAK2; assay type: binding; conditions: mixed Molt4/Ramos lysate, read-out: Inhibition values (IC50) JAK2
T1 construct: endogenous in cells; host or cells: Molt4 (ATCC CRL-1582) and Ramos (ATCC CRL-1596), mixed lysate 1:2
In short: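 Mixed Molt4/Ramos lysate (1:2, 10 mg/mL protein) was incubated 3 h in the cold with the immobilized aminopyrido-pyrimidine affinity matrix and compound, 9-step 1:3 dilutions. Bead-bound kinases were eluted and quantified by antibody dot blot with infrared detection. IC50s are from dose-response curves.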

JAK3 = biological target: T2, JAK3 (Homo sapiens, UniProt P52333); experiment: Kinobeads assay, JAK3; assay type: binding; conditions: mixed Molt4/Ramos lysate, read-out: Inhibition values (IC50) JAK3
T2 construct: endogenous in cells; host or cells: Molt4 (ATCC CRL-1582) and Ramos (ATCC CRL-1596), mixed lysate 1:2
T2 sequence (P52333 1-1124): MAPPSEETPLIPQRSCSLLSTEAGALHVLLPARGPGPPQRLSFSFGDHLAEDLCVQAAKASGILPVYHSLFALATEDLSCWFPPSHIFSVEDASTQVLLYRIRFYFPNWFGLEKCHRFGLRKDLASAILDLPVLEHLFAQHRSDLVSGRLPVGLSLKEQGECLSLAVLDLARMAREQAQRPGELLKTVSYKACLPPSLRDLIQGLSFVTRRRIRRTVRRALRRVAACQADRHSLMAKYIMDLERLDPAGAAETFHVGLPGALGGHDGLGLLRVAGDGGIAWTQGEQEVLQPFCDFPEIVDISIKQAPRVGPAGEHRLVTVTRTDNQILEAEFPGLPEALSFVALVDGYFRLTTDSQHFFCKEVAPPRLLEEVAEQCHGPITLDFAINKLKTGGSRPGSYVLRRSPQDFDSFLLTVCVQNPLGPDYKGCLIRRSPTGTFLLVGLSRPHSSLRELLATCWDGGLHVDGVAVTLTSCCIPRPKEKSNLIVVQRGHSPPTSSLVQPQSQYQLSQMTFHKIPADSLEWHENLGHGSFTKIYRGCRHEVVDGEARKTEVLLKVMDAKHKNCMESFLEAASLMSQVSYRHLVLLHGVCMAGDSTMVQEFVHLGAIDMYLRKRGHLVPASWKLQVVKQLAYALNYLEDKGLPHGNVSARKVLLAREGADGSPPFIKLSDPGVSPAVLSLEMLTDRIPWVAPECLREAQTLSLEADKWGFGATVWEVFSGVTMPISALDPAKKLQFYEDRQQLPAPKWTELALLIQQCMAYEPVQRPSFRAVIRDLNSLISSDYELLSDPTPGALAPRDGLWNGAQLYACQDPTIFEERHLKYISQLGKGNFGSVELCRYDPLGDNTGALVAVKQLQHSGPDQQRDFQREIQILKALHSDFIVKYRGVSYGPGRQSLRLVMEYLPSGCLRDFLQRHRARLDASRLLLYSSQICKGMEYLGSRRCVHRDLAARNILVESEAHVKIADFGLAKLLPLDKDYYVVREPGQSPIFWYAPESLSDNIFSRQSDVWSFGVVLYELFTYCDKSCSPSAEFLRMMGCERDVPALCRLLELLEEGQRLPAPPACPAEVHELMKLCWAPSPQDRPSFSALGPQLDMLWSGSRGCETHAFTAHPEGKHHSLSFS
Procedure: The compounds of the present invention as described in the previous examples were tested in a Kinobeads™ assay as described for ZAP-70 (WO-A 2007/137867). Briefly, test compounds (at various concentrations) and the affinity matrix with the immobilized aminopyrido-pyrimidine ligand 24 were added to cell lysate aliquots and allowed to bind to the proteins in the lysate sample. After the incubation time the beads with captured proteins were separated from the lysate. Bound proteins were then eluted and the presence of JAK1, JAK2, JAK3 and TYK2 was detected and quantified using specific antibodies in a dot blot procedure and the Odyssey infrared detection system. Dose response curves for individual kinases were generated and IC50 values calculated. Kinobeads™ assays for ZAP-70 (WO-A 2007/137867) and for kinase selectivity profiling (WO-A 2006/134056) have been previously described.
The affinity matrix was washed two times with 15 mL of lx DP buffer containing 0.2% NP40 (IGEPAL® CA-630, Sigma, #13021) and then resuspended in 1×DP buffer containing 0.2% NP40 (3% beads slurry).
5×DP buffer: 250 mM Tris-HCl pH 7.4, 25% Glycerol, 7.5 mM MgCl2, 750 mM NaCl, 5 mM Na3VO4; filter the 5×DP buffer through a 0.22 μm filter and store in aliquots at −80° C. The 5×DP buffer is diluted with H2O to 1×DP buffer containing 1 mM DTT and 25 mM NaF.
Stock solutions of test compounds were prepared in DMSO. In a 96 well plate […] solution of diluted test compounds at 5 mM in DMSO were prepared. Starting with this solution a 1:3 dilution series (9 steps) was prepared. For control experiments (no test compound) a buffer containing 2% DMSO was used.
Molt4 cells (ATCC catalogue number CRL-1582) and Ramos cells (ATCC catalogue number CRL-1596) were grown in 1 L Spinner flasks (Integra Biosciences, #182101) in suspension in RPMI 1640 medium (Invitrogen, #21875-034) supplemented with 10% Fetal Bovine Serum (Invitrogen) at a density between 0.15×10^6 and 1.2×10^6 cells/mL. Cells were harvested by centrifugation, washed once with 1×PBS buffer (Invitrogen, #14190-094) and cell pellets were frozen in liquid nitrogen and subsequently stored at −80° C. Cells were homogenized in a Potter S homogenizer in lysis buffer: 50 mM Tris-HCl, 0.8% NP40, 5% glycerol, 150 mM NaCl, 1.5 mM MgCl2, 25 mM NaF, 1 mM sodium vanadate, 1 mM DTT, pH 7.5. One complete EDTA-free tablet (protease inhibitor cocktail, Roche Diagnostics, 1873580) per 25 mL buffer was added. The material was dounced 10 times using a mechanized POTTER S, transferred to 50 mL falcon tubes, incubated for 30 minutes on ice and spun down for 10 minutes at 20,000 g at 4° C. (10,000 rpm in Sorvall SLA600, precooled). The supernatant was transferred to an ultracentrifuge (UZ)-polycarbonate tube (Beckmann, 355654) and spun for 1 hour at 100.000 g at 4° C. (33.500 rpm in Ti50.2, precooled). The supernatant was transferred again to a fresh 50 mL falcon tube, the protein concentration was determined by a Bradford assay (BioRad) and samples containing 50 mg of protein per aliquot were prepared. The samples were immediately used for experiments or frozen in liquid nitrogen and stored frozen at −80° C.
Cell lysate (approximately 50 mg protein per plate) was thawed in a water bath at room temperature and then stored on ice. To the thawed cell lysate 1×DP 0.8% NP40 buffer containing protease inhibitors (1 tablet for 25 mL buffer; EDTA-free protease inhibitor cocktail; Roche Diagnostics 1873580) was added in order to reach a final protein concentration of 10 mg/mL total protein. The diluted cell lysate was stored on ice. Mixed Molt4/Ramos lysate was prepared by combining one volume of Molt4 lysate and two volumes of Ramos lysate (ratio 1:2).
To a 96 well filter plate (Multiscreen HTS, BV Filter Plates, Millipore #MSBVN1250) were added per well: 100 μL affinity matrix (3% beads slurry), […], of compound solution, and 50 μL of diluted lysate. […]

T1 sequence (O60674 whole entry): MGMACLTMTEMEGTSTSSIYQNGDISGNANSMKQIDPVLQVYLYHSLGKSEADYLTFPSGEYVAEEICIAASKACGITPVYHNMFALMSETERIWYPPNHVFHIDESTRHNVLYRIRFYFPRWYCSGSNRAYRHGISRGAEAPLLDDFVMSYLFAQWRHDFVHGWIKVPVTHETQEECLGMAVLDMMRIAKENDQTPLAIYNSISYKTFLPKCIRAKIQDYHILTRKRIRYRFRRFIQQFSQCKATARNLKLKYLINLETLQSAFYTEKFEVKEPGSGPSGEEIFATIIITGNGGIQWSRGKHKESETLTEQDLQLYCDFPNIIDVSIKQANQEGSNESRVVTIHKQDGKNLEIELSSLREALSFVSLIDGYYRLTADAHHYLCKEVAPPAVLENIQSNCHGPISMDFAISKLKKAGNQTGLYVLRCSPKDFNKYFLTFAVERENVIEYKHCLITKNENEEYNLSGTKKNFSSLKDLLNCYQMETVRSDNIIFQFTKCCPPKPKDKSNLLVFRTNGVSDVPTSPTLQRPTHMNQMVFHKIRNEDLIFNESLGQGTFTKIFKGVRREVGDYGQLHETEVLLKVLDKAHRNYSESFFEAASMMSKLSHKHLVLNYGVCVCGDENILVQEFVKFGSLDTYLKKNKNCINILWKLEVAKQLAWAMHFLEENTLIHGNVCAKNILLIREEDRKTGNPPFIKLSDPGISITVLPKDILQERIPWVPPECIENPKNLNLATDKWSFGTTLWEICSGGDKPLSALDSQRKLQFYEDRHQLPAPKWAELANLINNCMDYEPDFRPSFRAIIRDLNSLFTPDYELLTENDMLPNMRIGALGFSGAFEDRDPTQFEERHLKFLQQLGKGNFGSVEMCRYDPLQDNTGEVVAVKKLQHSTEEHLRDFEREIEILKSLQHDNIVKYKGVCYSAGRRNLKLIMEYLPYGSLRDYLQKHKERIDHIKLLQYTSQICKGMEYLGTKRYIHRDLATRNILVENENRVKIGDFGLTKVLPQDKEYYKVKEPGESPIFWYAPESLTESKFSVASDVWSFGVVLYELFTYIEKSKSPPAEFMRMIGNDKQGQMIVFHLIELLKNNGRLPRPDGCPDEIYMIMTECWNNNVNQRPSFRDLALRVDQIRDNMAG

| Compound | IC50 (JAK2) [nM] | IC50 (JAK3) [nM] |
| --- | --- | --- |
| Cn1cc(Nc2ncc(Cl)c(NC(CO)c3ccccc3)n2)cn1 (stereo not drawn) [Compound 1] | ≥ 10000 | < 100 |
| Cn1cc(Nc2ncc(F)c(NC(CO)c3ccccc3)n2)cn1 (stereo not drawn) [Compound 2] | ≥ 10000 | 100 to 1000 |
| Cn1ccc(Nc2ncc(Cl)c(N[C@H](CO)c3ccccc3)n2)n1 [Compound 11] | ≥ 10000 | 100 to 1000 |
| Cc1cnc(Nc2cnn(CCO)c2)nc1NC(CO)c1ccccc1 (stereo not drawn) [Compound 12] | ≥ 10000 | 100 to 1000 |
| O=C(c1cc(Nc2ncc(Cl)c(N[C@H](CO)c3ccccc3)n2)c[nH]1)N1CCOCC1 [Compound 13] | 100 to 1000 | < 100 |
| Cn1cc(Nc2ncc(Cl)c(NC(CO)Cc3ccccc3)n2)cn1 (stereo not drawn) [Compound 14] | 1000 to 10000 | 100 to 1000 |
| COC(=O)C(Nc1nc(Nc2cnn(CCO)c2)ncc1Cl)c1ccccc1 (stereo not drawn) [Compound 15] | ≥ 10000 | 100 to 1000 |
| COC(=O)C(Nc1nc(Nc2cnn(C)c2)ncc1Cl)c1ccccc1 (stereo not drawn) [Compound 16] | ≥ 10000 | 100 to 1000 |
| O=C(O)C(Nc1nc(Nc2cnn(CCO)c2)ncc1Cl)c1ccccc1 (stereo not drawn) [Compound 17] | ≥ 10000 | 100 to 1000 |
| Cn1cc(Nc2ncc(Cl)c(NC(C(=O)O)c3ccccc3)n2)cn1 (stereo not drawn) [Compound 18] | 1000 to 10000 | < 100 |
| OCCn1cc(Nc2ncc(Cl)c(NC(CO)Cc3ccccc3)n2)cn1 (stereo not drawn) [Compound 19] | 1000 to 10000 | < 100 |
| CNC(=O)[C@@H](Nc1nc(Nc2cnn(C)c2)ncc1Cl)c1ccccc1 [Compound 20] | ≥ 10000 | 100 to 1000 |
| CC(C)OC(=O)Cn1cc(Nc2ncc(Cl)c(N[C@H](CO)c3ccccc3)n2)cn1 [Compound 21] | 1000 to 10000 | < 100 |
| CCOC(=O)Cn1cc(Nc2ncc(Cl)c(N[C@H](CO)c3ccccc3)n2)cn1 [Compound 22] | 1000 to 10000 | < 100 |
| CNC(=O)Cn1cc(Nc2ncc(Cl)c(N[C@H](CO)c3ccccc3)n2)cn1 [Compound 23, (S)-2-(4-((5-chloro-4-((2-hydroxy-1-phenylethyl)amino)pyrimidin-2-yl)amino)-1H-pyrazol-1-yl)-N-methylacetamide] | 1000 to 10000 | < 100 |
| O=C(O)Cn1cc(Nc2ncc(Cl)c(N[C@H](CO)c3ccccc3)n2)cn1 [Compound 24] | ≥ 10000 | < 100 |
| CN(C)C(=O)[C@@H](Nc1nc(Nc2cnn(C)c2)ncc1Cl)c1ccccc1 [Compound 25] | ≥ 10000 | 100 to 1000 |
| CN(C)C(=O)[C@@H](Nc1nc(Nc2cnn(CCO)c2)ncc1Cl)c1ccccc1 [Compound 26] | 1000 to 10000 | < 100 |
